# From patent US6896895B2, “Carotenoid esters, carotenoid-enriched feeds, and methods of pigmenting foods and foodstuffs” (DSM IP Assets B.V., priority 2000, dated 2005)
# Legend:
# [1] = Carotenoid ester content and deposition rate in egg yolk of laying hens (HPLC); assay type: in vivo, laying hens (ISA Brown); conditions: egg yolk; for Deposition Rate Target Values % of Controls / Ethyl β-apo-8′-carotenoate Equivalents % of Controls: Table 8; for Deposition Rate % of Controls: Table 10
# Protocol: (§1) Pigmentation efficacy was assessed in egg yolk, in the back skin of the broiler carcass, and in broiler shanks by reflectance colorimetry accompanied by visual scoring (Roche Colour Fan). The deposition of the ethyl-β-apo-8′-carotenoate (control) and the other carotenoid esters was determined in egg yolk and in the broiler back skin. In addition, the carotenoid levels in plasma and abdominal fat were measured.
# Each year in February the pigmentation trials are started with a new flock of layers.
# (§2) Preceding the trials the hens were fed a low carotenoid basal diet (produced at the CRNA) without carotenoid supplementation for at least 28 days. During the trials, the control group received the low carotenoid basal diet containing less than 2 mg total xanthophylls per kg of feed. The other animals were fed this diet supplemented with the appropriate pigments for three weeks. The diet was given to the animals ad libitum in mash form. The hens had free access to tap water.
# Peaks were related to all-E- and Z-isomers of the various carotenoid esters by chromatography of heat-isomerized solutions of the respective reference substances in n-hexane. The HPLC system was calibrated with the all-E-isomer of ethyl β-apo-8′-carotenoate. The response factor of the various derivatives was deduced from that of ethyl β-apo-8′-carotenoate taking into account the respective molecular weight. The content of the Z-isomer fractions was calculated based on the response of the all-E-isomer and using a correction factor of 1.4 to account for the lower specific absorbance of the Z-isomers.
# (§3) The HPLC-system for in-feed analysis was also used to quantify the carotenoid esters in egg yolk, broiler tissues, and broiler plasma, but the extraction procedure was different for the various matrices.
# For the extraction of egg yolk, 10 g of pooled and homogenised yolk were mixed with 10 ml of demineralized water using a dispersion instrument (Polytron). 1.0 g of diluted egg yolk was introduced into a 10 ml test tube with 1.0 ml of demineralized water and 2.0 ml of ethanol, and the contents were mixed on a Vortex shaker. After addition of 4.0 ml of n-hexane, the mixture was further treated as described for plasma.
# [2] = test system: skin and shanks of broilers; test: Reflectance colorimetry and visual classification of skin and shanks of broilers; assay type: in vivo, broiler chickens (Ross 308, Ross 508); set-up: key to Shanks Visual Classification / Skin Visual Classification: −; (+); +; ++ = good color; o = orange; conditions: dry carcasses, average over doses, Table 6
# Protocol: as §1
# (§4) The trials were carried out using chickens of the type Ross 308 (trials MC-24/98 and MC-02/99) and Ross 508 (trials MC-11/99, MC-16/99, MC-24/99, and MC-03/00) (Couvir de la Bohardière, F-49290 Saint Laurent de la Plaine). One-day old broiler chickens, separated by sex, were divided by weight into experimental groups of ten animals each and reared in floor pens littered with wood shavings. The chickens were fed a low carotenoid basal grower diet until day 22 (trials MC-24/98, MC-02/99, and MC-11/99) or until day 15 (trials MC-16/99, MC-24/99, and MC-03/00). The low carotenoid basal grower diet contained less than 2 mg total xanthophylls per kg of feed, and its composition is described in Table 2. For the subsequent experimental period of three weeks, the birds received the basal diet supplemented with an appropriate pigment. The feed was given in the form of crumbled pellets during the first week and as pellets thereafter. The animals had unrestricted access to feed and water. A given treatment involved one group of male and one group of female chickens. Each group of chickens was weighed at day 22 (trials MC-24/98, MC-02/99, and MC-11/99) or day 15 (trials MC-16/99, MC-24/99, and MC-03/00) and on day 43. On day 42, five chickens per group were selected at random, labelled, and blood samples were taken from the jugular vein. At the end of the experiment (day 44) the animals were slaughtered in a commercial slaughterhouse (Freyburger, Dannemarie, France). The following day, the color of the skin (hind back of carcasses) and the shanks of the labelled chicken were measured by reflectance colorimetry (Minolta CR 200 apparatus, CIE-Lab system). Samples of the dorsal skin and abdominal fat were obtained, pooled for each experimental group, and the carotenoid concentration was determined. The concentration of carotenoids in feed, plasma, skin, and abdominal fat was determined by standard procedures as described after Tables 1 and 2.
# The color of broiler skin and shanks was measured using a tristimulus Minolta CR-300 Chromameter with diffuse D65-illumination and a 0° viewing angle. The color of the skin was read at three different points on the back of the dry broiler carcasses and average values of the triple measurements were recorded. The color of shanks was measured using single measurements at the ball between the toes.
# (§5) The color data were expressed as CIE L*a*b*-values including h*(hue) and C* (chroma). The values given in the tables per treatment and trial represent averages of color measurements of four egg yolk pools, ten broiler back skins, or ten broiler shanks (5 males and 5 females).
# egg yolk = test: Egg yolk colour: reflectance colorimetry and Roche Yolk Colour Fan; assay type: in vivo, laying hens (ISA Brown); conditions: egg yolk, laying hens, 5.0 mg/kg feed
# Protocol: as §1
# The trials were carried out following the standard experimental design used for egg yolk pigmentation trials at the Roche Research Center for Animal Nutrition (CRNA, F-68305 Village-Neuf, France). Each year in February the pigmentation trials are started with a new flock of layers. At the beginning of the trials the age of the laying hens (192 birds, type ‘ISA Brown’) were as follows:
# as §2, with “water. Beside the unsupplemented control treatment, treatments were carried out involving the provision of supplemented feed, the results of these treatments being presented in Tables 7-9.” for “water.”
# Egg yolk color was assessed as described by Steinberg, et al. (Arch. Geflügelk 64 (4), 180-187 (2000)). The yolks were manually separated from the whites of the eggs. The isolated yolks of three to six eggs were combined, weighed, and stirred with a glass rod until the color appeared homogeneous. The color hue was visually scored using the Roche Yolk Colour Fan (RYCF, version 1993). An aliquot of the pooled egg yolks was transferred into a glass cuvette yielding an approximately 2 cm thick layer. The color was then measured by means of a Dr. Lange Xeno Color LS 100 spectro-colorimeter with diffuse D65-illumination and a 8° viewing angle.
# as §5
# [3] = Carotenoid ester content in plasma, back skin and abdominal fat of broilers (HPLC); assay type: in vivo, broiler chickens (Ross 308, Ross 508); conditions: average over doses, Table 4
# Protocol: as §1, §4
# The content of the various carotenoid esters in feed was determined according to the method of Schierle, et al. (J. Schierle , N. Faccin, V. Riegert, Analytical Methods for Vitamins and Carotenoids in Feed, Revised supplement: Determination of Stabilized Apocarotenoic Ester and Canthaxanthin in Premixes and Feeds, Roche publication no. 50771 (1995), publicly available from. F. Hoffmann-La Roche Ltd., CH-4070 Basel). This method was modified in that the mobile phase of the normal-phase HPLC contained 0.5% instead of 7% acetone in n-hexane, improving the separation of the E/Z-isomers of the carotenoid esters. Peaks were related to all-E- and Z-isomers of the various carotenoid esters by chromatography of heat-isomerized solutions of the respective reference substances in n-hexane. The HPLC system was calibrated with the all-E-isomer of ethyl β-apo-8′-carotenoate. The response factor of the various derivatives was deduced from that of ethyl β-apo-8′-carotenoate taking into account the respective molecular weight. The content of the Z-isomer fractions was calculated based on the response of the all-E-isomer and using a correction factor of 1.4 to account for the lower specific absorbance of the Z-isomers.
# as §3
# For plasma extraction, 1.0 g of the well-mixed plasma sample was introduced into a 10 ml test tube with 1.0 ml of demineralized water and 4.0 ml of ethanol, and the contents mixed on a Vortex shaker. […]
Structure (SMILES),"Deposition Rate Target Values % of Controls ([1]; trial H-18/99, 5.0 mg/kg feed) [%]","Ethyl β-apo-8′-carotenoate Equivalents % of Controls ([1]; trial H-18/99, 5.0 mg/kg feed) [%]","Deposition Rate % of Controls ([1]; trial H-18/99, 5.0 mg/kg feed) [%]",Shanks Chroma C*ab % of Controls [2] [%],Shanks Color Hue h*ab % of Controls [2] [%],Shanks Visual Classification [2],Skin Chroma C*ab % of Controls [2] [%],Skin Color Hue h*ab % of Controls [2] [%],Skin Visual Classification [2],"Color Fan Value % of Controls (egg yolk; trial H-18/99, Table 8) [%]","Chroma C*ab % of Controls (egg yolk; trial H-18/99, Table 10) [%]","Color Fan Value % of Controls (egg yolk; trial H-18/99, Table 10) [%]","Color Hue h*ab % of Controls (egg yolk; trial H-18/99, Table 10) [%]",Analytical Content as Equivalent of Ethyl β-apo-8′-carotenoate in % of control Fat [3] [%],Analytical Content as Equivalent of Ethyl β-apo-8′-carotenoate in % of control Plasma [3] [%],Analytical Content as Equivalent of Ethyl β-apo-8′-carotenoate in % of control Skin [3] [%],"Deposition Rate Target Values % of Controls ([1]; trial H-25/99, 5.0 mg/kg feed) [%]","Ethyl β-apo-8′-carotenoate Equivalents % of Controls ([1]; trial H-25/99, 5.0 mg/kg feed) [%]","Deposition Rate % of Controls ([1]; trial H-25/99, 5.0 mg/kg feed) [%]","Color Fan Value % of Controls (egg yolk; trial H-25/99, Table 8) [%]",further results
"CC(C=CC=C(C)C=CC1=C(C)CCCC1(C)C)=CC=CC=C(C)C=CC=C(C)C(=O)OCCC(C)C [(6), isoamyl beta-apo-8′-carotenoate]",90,80,90,86,101,(+),89,99,(+),116,105,116,101,35,62,38,–,–,–,–,–
"CC(C=CC=C(C)C=CC1=C(C)CCCC1(C)C)=CC=CC=C(C)C=CC=C(C)C(=O)OC1CCCCC1 [(16), cyclohexyl beta-apo-8′-carotenoate]",–,–,–,84,103,(+),80,95,+,–,–,–,–,38,60,44,99,82,99,108,"Chroma C*ab % of Controls (egg yolk; trial H-25/99, Table 10): 112%; Color Fan Value % of Controls (egg yolk; trial H-25/99, Table 10): 108%; Color Hue h*ab % of Controls (egg yolk; trial H-25/99, Table 10): 97%"
"COC(=O)C(C)=CC=CC(C)=CC=CC=C(C)C=CC=C(C)C=CC1=C(C)CCCC1(C)C [(1), methyl beta-apo-8′-carotenoate]",99,95,99,97,101,(+),97,100,(+),130,104,130,99,85,88,87,–,–,–,–,–
"CCC(C)COC(=O)C(C)=CC=CC(C)=CC=CC=C(C)C=CC=C(C)C=CC1=C(C)CCCC1(C)C (stereo not drawn) [(7), 2-methyl-butyl beta-apo-8′-carotenoate]",–,–,–,85,101,(+),80,94,(+),–,–,–,–,45,62,40,95,86,95,108,"Chroma C*ab % of Controls (egg yolk; trial H-25/99, Table 10): 87%; Color Fan Value % of Controls (egg yolk; trial H-25/99, Table 10): 108%; Color Hue h*ab % of Controls (egg yolk; trial H-25/99, Table 10): 106%"
